Here are results for three molecules from patent US20220267271A1, “WNT ACTIVATORS AND METHODS OF USE” (MAYO FOUNDATION FOR MEDICAL EDUCATION AND RESEARCH, priority 2019, published 2022).

Data set [1] is described as follows: Pharmacokinetic study in Balb/c mice following intravenous administration. Format: in vivo. Conditions: male Balb/c mice, IV 2 mg/kg. Here is the method:
(A) Plasma and brain concentration—time curves of 1015 in male Balb/c mice following intravenous (2 mg/kg) administration (n=4 at each time point). (B) in vivo pharmacokinetic parameters of 1015. B/P: brain/plasma concentration ratio (30 min after IV injection with 2 mg/kg) calculated using 1 g/mL brain density.
Pharmacokinetic study of compound 1015 in Balb/c mice following intravenous administration: Male Balb/c mice (11-12 weeks old, body weight 21.9 to 31.3 g and average body weight across all groups 25.6 g, SD=2.19 g) were used in this study. The animals were randomly assigned to the treatment groups before the pharmacokinetic study; all animals were fasted for 4 h before intravenous injection of 1015 at 2 mg/kg dissolved in Kolliphor HS-physiological saline (20%:80%). Eight time points (5, 15, 30, 60, 120, 240, 480 and 1440 min) were set for this pharmacokinetic study. Each of the time point treatment group included 4 animals. There was also a control group of 2 animals. Mice were injected IV with 2,2,2-tribromoethanol at the dose of 150 mg/kg prior to drawing the blood. Blood collection was performed from the orbital sinus in microtainers containing K2EDTA. Animals were sacrificed by cervical dislocation after blood samples collection. Brain and plasma samples were immediately processed, flash-frozen and stored at −70° C. until subsequent analysis.
Plasma samples (50 μl) were mixed with 200 μl of IS solution. After mixing by pipetting and centrifuging for 4 min at 6000 rpm, 2 μl of each supernatant was injected into LC-MS/MS system. Solution of compound IS-22665-01 (200 ng/ml in acetonitrile-methanol mixture, 1:1, v/v) was used as internal standard (IS) for quantification of 1015 in plasma samples. Brain samples (100 mg±1 mg) were dispersed in 500 μl of IS200(80) using zirconium oxide beads (150 mg±5 mg) in The Bullet Blender® homogenizer for 60 seconds at speed 8. […] Solution of compound IS-22665-01 (200 ng/ml in water-acetonitrile-methanol mixture, 2:4:4, v/v/v) was used as internal standard (IS200(80)) for quantification of 1015 in brain samples. […]

Data set [2] relates to Wnt/β-catenin signaling. In words: Wnt/β-catenin signaling in human iPSC-derived neurons (Western blot, qPCR). The data set is classed as cell-based. The procedure:
Human iPSC-derived neurons were treated with 1015 (0.4 μM) for 48 h, and the mRNA levels of axin2 (B), neuroD1 (C) and SOX2 (D) were determined by qPCR. All the values are the average of three independent experiments with the SE values indicated by error bars. * P<0.05, ** P<0.01 verse corresponding control. (E) Human iPSC-derived neurons were treated with 1015 (0.4 μM) for 48 h, and the levels of phopspho-tau (p-tau) and total tau were determined by Western blotting with specific antibodies AT8 and HT7, respectively. This experiment is a representative of two such experiments performed with similar data.
NeuroD1, a proneural basic helix-loop-helix (bHLH) transcription factor, plays a critical role in CNS development, and is important for survival of neuronal progenitor cells. There is a TCF/LEF regulatory element in the Neurod1 promoter, and NeuroD1 is a specific target of Wnt/β-catenin signaling. […] In addition, 1015 also induces neural stem cell marker SOX2 expression in human iPSC-derived neurons ([…]). Importantly, 1015 suppresses tau phosphorylation in human iPSC-derived neurons (FIG. 16 at D).

Data set [3] concerns TCF/LEF reporter. The following applies: with Wnt3A; cited from earlier work.
For data set [4], the system named is tau. In words: Tau phosphorylation in N2a cells by Western blotting. Format: cell-based. The following applies: 0.8 and 1.6 μM, 24 h. The procedure: N2a cells were treated with 1011 at the indicated concentrations for 24 h. (A) the levels of β-catenin, tau and tau phosphorylation were examined by Western blotting. (B) the intensity of the tau phosphorylation bands were quantified and normalized to the corresponding signal for total tau. The results represented in the histograms are shown as the mean±SD and are the average of 3 independent experiments. *P<0.05, **P<0.01 versus corresponding control value.
(§1) Western blotting: Cells in 6-well plates were lysed in 0.5 ml of lysis buffer (phosphate-buffered saline containing 1% Triton X-100, 1× Proteinase inhibitor cocktail Complete, and 1 mM PMSF) at 4° C. for 15 min. Equal quantities of protein were subjected to SDS-PAGE under reducing conditions. Following transfer to immobilon-P transfer membrane, successive incubations with a primary antibody, and a horseradish peroxidase-conjugated secondary antibody or IRDye® 680RD goat anti-rabbit/mouse secondary antibodies were carried out for 60-120 min at room temperature. The immunoreactive proteins were then detected using the ECL system or the Odyssey infrared imaging system (LI-COR). Films showing immunoreactive bands were scanned by Hp Scanjet 5590.

Data set [5] concerns GSK3β. In words: GSK3β phosphorylation (Ser9) in N2a cells by Western blotting. Conditions: 0.8 μM and 1.6 μM, 24 h. The data set is classed as cell-based. Here is the method:
N2a cells were treated with 1011 at the indicated concentrations for 24 h. (A) the levels of β-catenin, GSK3β and GSK3β phosphorylation (Ser9) were examined by Western blotting. (B) the intensity of the GSK3β phosphorylation bands were quantified and normalized to the corresponding signal for total GSK3β. The results represented in the histograms are shown as the mean±SD and are the average of 3 independent experiments. *P<0.05, **P<0.01 versus corresponding control value.
as §1

SMILES strings stand for the structures.

For the molecule `Nc1ccccc1NC(=O)c1ccc(C(=O)NCC2CCN2C2CCCC2)cn1` (stereo not shown) [Compound 1015], in data set [1], the “concentration in brain versus plasma” value is reported as “much higher concentration in brain than in plasma” and the “half-life (t1/2), brain versus plasma” value was “much longer in brain than in plasma”. Also, the Kp at 30 min in data set [1] (mouse, brain/plasma, 30 min after injection, read-out: brain concentration/plasma concentration ratio (B/P)) was 5.6. Further, in data set [2] (0.4 μM, 48 h), the “NeuroD1 expression (mRNA)” value was “significantly enhances”, the “Wnt specific target axin2 expression (mRNA)” value is given as “increases” and the “neural stem cell marker SOX2 expression (mRNA)” value was “induces”. In addition, the “Wnt co-receptor LRP6 level” value in data set [2] (24 h) was “enhances”.

On to `CC(=O)Nc1ccc(C(=O)Nc2ccccc2N)cc1` [CI-994, 4-(acetylamino)-N-(2-aminophenyl)benzamide, reference compound], for which the “activity of the TCF/LEF reporter” value in data set [3] was “able to synergize with Wnt3A to activate”.

On to `CC1CCCC(C)N1CCNC(=O)c1ccc(C(=O)Nc2ccccc2N)nc1` (stereo not shown) [Compound 1011], for which the tau phosphorylation result in data set [4] was “suppressed”. The “GSK3β phosphorylation at Ser9” value in data set [5] is “significantly enhanced”.
